The target of data set [1] is Type-1 angiotensin II receptor (Homo sapiens) (UniProt P30556). As to the kind of experiment: Displacement of [125I][Sar1,Ile8]-AT2 from human recombinant AT1 receptor expressed in HEK293 cells at 100 uM measured after 120 mins by scintillation counting method relative to control. It counts as cell-based.
Data set [2] has as its target Neurotensin receptor type 1 (Homo sapiens) (UniProt P30989). As to the kind of experiment: Displacement of [125I]Tyr3-neurotensin from human recombinant NTS1 receptor expressed in CHO cells at 100 uM measured after 60 mins by scintillation counting method relative to control. It counts as cell-based. (In general: Loss of bound radioactivity is the signal in a displacement assay; it reports binding, not function.)

The test system of data set [3] is Rattus norvegicus. As to the kind of experiment: Anticonvulsant activity in maximal electroshock induced seizure Sprague-Dawley rat model assessed as suppression in hindlimb tonic extension at 30 mg/kg, po measured at 1 hr post dose. It is filed as functional, organism-based.
In data set [4] the test system is Rattus norvegicus. Nature of the data set: Neurotoxicity in Sprague-Dawley rat assessed as behavioral change at 30 mg/kg, ip measured at […] post dose. It counts as toxicity, organism-based. To be noted: in vivo.
Data set [5] is described as follows: Protection index, ratio of TD50 for neurotoxicity in po dosed mouse to ED50 for po dosed maximal electroshock induced seizure mouse model. It counts as toxicity, organism-based. To be noted: in vivo, read-out: Ratio TD50/ED50. (In general: Protection in the maximal electroshock model is a classic sign of anticonvulsant action.)
Data set [6] concerns Mus musculus. As to the kind of experiment: Anticonvulsant activity in po dosed maximal electroshock induced seizure mouse model assessed as suppression in hindlimb tonic extension by measuring time to peak effect. It counts as functional.
Data set [7] has as its system Mus musculus. Nature of the data set: Anticonvulsant activity in po dosed pentylenetetrazole induced seizure mouse model assessed as no observable episode of clonic convulsion of at least 5 secs. It is filed as functional.
The test system of data set [8] is Mus musculus. Nature of the data set: Anticonvulsant activity in 6-Hz induced seizure mouse model assessed as restoration of normal activity within 10 secs from stimulation at 100 mg/kg, ip at 32 mA measured at 1 hr post dose. It is filed as functional, organism-based.
For data set [9], the target named is B2 bradykinin receptor (Homo sapiens) (UniProt P30411). Nature of the data set: Displacement of [3H]bradykinin from human recombinant bradykinin B2 receptor expressed in CHO cells at 100 uM measured after 60 mins by scintillation counting method relative to control. It is filed as cell-based.
Chain of B2 bradykinin receptor (Homo sapiens) (P30411 whole entry): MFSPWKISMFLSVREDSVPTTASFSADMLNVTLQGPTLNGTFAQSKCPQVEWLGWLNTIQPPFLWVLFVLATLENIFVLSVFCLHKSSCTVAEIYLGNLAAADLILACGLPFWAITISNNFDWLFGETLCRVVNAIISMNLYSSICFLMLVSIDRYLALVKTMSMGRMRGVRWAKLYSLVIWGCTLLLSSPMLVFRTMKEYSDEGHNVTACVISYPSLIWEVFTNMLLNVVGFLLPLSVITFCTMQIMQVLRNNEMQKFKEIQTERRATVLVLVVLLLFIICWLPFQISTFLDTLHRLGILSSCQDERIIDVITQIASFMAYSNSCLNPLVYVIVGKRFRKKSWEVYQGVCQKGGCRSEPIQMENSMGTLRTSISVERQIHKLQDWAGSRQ
Data set [10] deals with Mus musculus. Nature of the data set: Anticonvulsant activity in po dosed 6-Hz induced seizure mouse model assessed as restoration of normal activity within 10 secs from stimulation by measuring time to peak effect at 44 mA. It counts as functional.
Data set [11] has as its system Rattus norvegicus. As to the kind of experiment: Anticonvulsant activity in po dosed pentylenetetrazole induced seizure Sprague-Dawley rat model assessed as no observable episode of clonic convulsion of at least 5 secs. It is filed as functional.
Data set [12] relates to Rattus norvegicus. As to the kind of experiment: Anticonvulsant activity in maximal electroshock induced seizure Sprague-Dawley rat model assessed as suppression in hindlimb tonic extension at 30 mg/kg, ip measured at 1 hr post dose. It is filed as functional, organism-based.
Data set [13] deals with Mus musculus. Nature of the data set: Neurotoxicity in mouse assessed as induction of motor impairment at 300 mg/kg, ip measured at 0.5 hrs post dose by rotarod method. It counts as toxicity, organism-based. As to conditions: in vivo. Background: Falling from the rotarod earlier than controls is read as motor impairment.
Data set [14] relates to Mus musculus. Nature of the data set: Anticonvulsant activity in po dosed pentylenetetrazole induced seizure mouse model assessed as no observable episode of clonic convulsion of at least 5 secs by measuring time to peak effect. It counts as functional.
Data set [15] deals with Mus musculus. As to the kind of experiment: Anticonvulsant activity in po dosed maximal electroshock induced seizure mouse model assessed as suppression in hindlimb tonic extension. It is filed as functional.
For data set [16], the species on record is Rattus norvegicus. Nature of the data set: Displacement of [3H]D888 from rat cerebral cortex calcium channel L type verapamil binding site at 100 uM measured after 120 mins by scintillation counting method relative to control.
The target of data set [17] is Type-2 angiotensin II receptor (Homo sapiens) (UniProt P50052). Nature of the data set: Displacement of [125I]CGP 42112A from human recombinant AT2 receptor expressed in HEK293 cells at 100 uM measured after 4 hrs by scintillation counting method relative to control. It is filed as cell-based.
Chain of Type-2 angiotensin II receptor (Homo sapiens) (P50052 whole entry): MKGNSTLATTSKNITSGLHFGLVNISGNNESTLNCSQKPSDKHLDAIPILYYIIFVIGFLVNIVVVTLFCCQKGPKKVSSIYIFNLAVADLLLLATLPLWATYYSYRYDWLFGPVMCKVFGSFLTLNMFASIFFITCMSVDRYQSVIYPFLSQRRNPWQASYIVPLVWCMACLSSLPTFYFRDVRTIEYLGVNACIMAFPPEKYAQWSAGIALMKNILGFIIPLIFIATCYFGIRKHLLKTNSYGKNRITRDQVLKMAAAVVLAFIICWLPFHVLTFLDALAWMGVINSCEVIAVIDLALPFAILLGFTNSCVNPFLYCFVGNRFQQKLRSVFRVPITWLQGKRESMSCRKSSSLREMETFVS
Another data set deals with AtT20. Nature of the data set: Displacement of [125I]Tyr11-somatostatin-14 from Sst receptor in mouse AtT-20 cells at 100 uM measured after 60 mins by scintillation counting method relative to control. It is filed as cell-based.
In data set [18] the test system is Mus musculus. Nature of the data set: Anticonvulsant activity in po dosed 6-Hz induced seizure mouse model assessed as restoration of normal activity within 10 secs from stimulation at 44 mA. It is filed as functional.
The test system of data set [19] is Mus musculus. As to the kind of experiment: Neurotoxicity in mouse assessed as induction of motor impairment at 300 mg/kg, ip measured at 4 hrs post dose by rotarod method. As to conditions: in vivo. It counts as toxicity, organism-based.
Data set [20] relates to Rattus norvegicus. Nature of the data set: Neurotoxicity in Sprague-Dawley rat assessed as behavioral change at 30 mg/kg, ip measured at 4 hrs post dose. It counts as toxicity, organism-based. As to conditions: in vivo.
The subject of data set [21] is Rattus norvegicus. Nature of the data set: Neurotoxicity in Sprague-Dawley rat assessed as behavioral change at 30 mg/kg, ip measured at 2 hrs post dose. It is filed as toxicity, organism-based. As to conditions: in vivo.
For data set [22], the species on record is Rattus norvegicus. Nature of the data set: Displacement of [125I][Tyr4]bombesin from rat cerebral cortex BB receptor at 100 uM measured after 60 mins by scintillation counting method relative to control.
The subject of data set [23] is Rattus norvegicus. Nature of the data set: Neurotoxicity in Sprague-Dawley rat assessed as behavioral change at 30 mg/kg, ip measured at 0.5 hrs post dose. As to conditions: in vivo. It is filed as toxicity, organism-based.
The target of data set [24] is Vasopressin V1a receptor (Homo sapiens) (UniProt P37288). Nature of the data set: Displacement of [3H]AVP from human recombinant V1a receptor expressed in CHO cells at 100 uM measured after 60 mins by scintillation counting method relative to control. It counts as cell-based.
Chain of Vasopressin V1a receptor (Homo sapiens) (P37288 whole entry, looked up): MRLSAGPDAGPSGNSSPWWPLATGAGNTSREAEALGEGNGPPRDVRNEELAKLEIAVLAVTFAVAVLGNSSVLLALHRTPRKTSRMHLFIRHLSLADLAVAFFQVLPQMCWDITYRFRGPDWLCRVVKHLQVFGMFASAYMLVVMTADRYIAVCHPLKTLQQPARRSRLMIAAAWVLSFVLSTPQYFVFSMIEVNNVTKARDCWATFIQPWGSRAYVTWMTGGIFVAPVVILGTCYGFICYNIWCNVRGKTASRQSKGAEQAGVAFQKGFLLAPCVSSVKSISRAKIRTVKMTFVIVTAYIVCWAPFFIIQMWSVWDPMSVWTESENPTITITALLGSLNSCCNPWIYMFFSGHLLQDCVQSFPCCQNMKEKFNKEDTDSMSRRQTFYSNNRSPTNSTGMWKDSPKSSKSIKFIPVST
The subject of data set [25] is Rattus norvegicus. As to the kind of experiment: Neurotoxicity in Sprague-Dawley rat assessed as behavioral change at 50 mg/kg, ip measured at 2 hrs post dose. It counts as toxicity, organism-based. To be noted: in vivo.
Data set [26] relates to Rattus norvegicus. As to the kind of experiment: Neurotoxicity in Sprague-Dawley rat assessed as behavioral change at 50 mg/kg, ip measured at 0.5 hrs post dose. It counts as toxicity, organism-based. To be noted: in vivo.
The test system of data set [27] is Mus musculus. As to the kind of experiment: Anticonvulsant activity in maximal electroshock induced seizure mouse model assessed as suppression in hindlimb tonic extension at 300 mg/kg, ip measured at 4 hrs post dose. It counts as functional, organism-based.
The species entered for data set [28] is Rattus norvegicus. As to the kind of experiment: Displacement of [3H]a,b-MeATP from rat urinary bladder P2X receptor at 100 uM measured after 120 mins by scintillation counting method relative to control.
The test system of data set [29] is Rattus norvegicus. As to the kind of experiment: Neurotoxicity in Sprague-Dawley rat assessed as behavioral change at 50 mg/kg, ip measured at 1 hr post dose. It is filed as toxicity, organism-based. As to conditions: in vivo.
Data set [30] deals with Glucocorticoid receptor (Homo sapiens) (UniProt P04150). Nature of the data set: Displacement of [3H]dexamethasone from GR receptor in human IM9 cells at 100 uM relative to control. It counts as cell-based. As to conditions: IM-9.
Chain of Glucocorticoid receptor (Homo sapiens) (P04150 whole entry): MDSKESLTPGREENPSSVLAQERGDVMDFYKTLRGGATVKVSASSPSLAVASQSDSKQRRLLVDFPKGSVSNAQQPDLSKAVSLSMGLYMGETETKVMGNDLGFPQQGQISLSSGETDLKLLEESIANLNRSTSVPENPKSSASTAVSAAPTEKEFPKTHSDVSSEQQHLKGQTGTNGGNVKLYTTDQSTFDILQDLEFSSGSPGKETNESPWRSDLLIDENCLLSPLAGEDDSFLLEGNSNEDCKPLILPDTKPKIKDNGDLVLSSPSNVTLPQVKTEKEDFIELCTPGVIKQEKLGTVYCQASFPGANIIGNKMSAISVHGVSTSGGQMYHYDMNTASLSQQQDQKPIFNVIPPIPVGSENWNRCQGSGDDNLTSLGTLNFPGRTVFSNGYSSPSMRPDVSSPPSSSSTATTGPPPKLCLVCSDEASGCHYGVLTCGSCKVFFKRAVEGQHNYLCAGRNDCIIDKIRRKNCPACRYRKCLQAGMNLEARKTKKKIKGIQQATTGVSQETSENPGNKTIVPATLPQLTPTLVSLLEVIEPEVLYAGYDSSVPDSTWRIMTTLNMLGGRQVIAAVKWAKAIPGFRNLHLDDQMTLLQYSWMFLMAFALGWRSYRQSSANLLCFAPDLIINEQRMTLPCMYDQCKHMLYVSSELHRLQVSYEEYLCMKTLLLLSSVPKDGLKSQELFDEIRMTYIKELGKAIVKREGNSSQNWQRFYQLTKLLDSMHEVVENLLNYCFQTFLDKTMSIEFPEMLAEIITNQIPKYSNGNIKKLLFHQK
Data set [31] has as its system Mus musculus. Nature of the data set: Anticonvulsant activity in 6-Hz induced seizure mouse model assessed as restoration of normal activity within 10 secs from stimulation at 100 mg/kg, ip at 44 mA measured at 0.5 hrs post dose. It counts as functional, organism-based.
The test system of data set [32] is Rattus norvegicus. As to the kind of experiment: Neurotoxicity in Sprague-Dawley rat assessed as behavioral change at 50 mg/kg, ip measured at […] post dose. It counts as toxicity, organism-based. To be noted: in vivo.
The subject of data set [33] is Rattus norvegicus. Nature of the data set: Anticonvulsant activity in maximal electroshock induced seizure Sprague-Dawley rat model assessed as suppression in hindlimb tonic extension at 30 mg/kg, ip measured at 0.5 hrs post dose. It is filed as functional, organism-based.
Data set [34] deals with Neuropeptide Y receptor type 2 (Homo sapiens) (UniProt P49146). Nature of the data set: Displacement of [125I]peptide YY from Y2 in human KAN-TS cells receptor at 100 uM measured after 60 mins by scintillation counting method relative to control. It is filed as cell-based.
Chain of Neuropeptide Y receptor type 2 (Homo sapiens) (P49146 whole entry): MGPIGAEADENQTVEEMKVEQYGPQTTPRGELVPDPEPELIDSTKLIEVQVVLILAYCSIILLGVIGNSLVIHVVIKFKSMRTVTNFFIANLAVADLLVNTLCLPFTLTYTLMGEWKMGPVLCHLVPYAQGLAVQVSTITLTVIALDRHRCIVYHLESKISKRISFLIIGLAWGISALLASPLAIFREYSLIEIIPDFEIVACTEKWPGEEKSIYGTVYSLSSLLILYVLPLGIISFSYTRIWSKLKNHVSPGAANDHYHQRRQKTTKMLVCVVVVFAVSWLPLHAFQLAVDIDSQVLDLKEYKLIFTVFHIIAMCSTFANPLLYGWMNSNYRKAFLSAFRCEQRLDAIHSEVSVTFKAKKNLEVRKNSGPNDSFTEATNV
For data set [35], the target named is Histamine H2 receptor (Homo sapiens) (UniProt P25021). As to the kind of experiment: Displacement of [125I]APT from human recombinant H2 receptor expressed in CHO cells at 100 uM measured after 120 mins by scintillation counting method relative to control. It counts as cell-based.
Chain of Histamine H2 receptor (Homo sapiens) (P25021 whole entry): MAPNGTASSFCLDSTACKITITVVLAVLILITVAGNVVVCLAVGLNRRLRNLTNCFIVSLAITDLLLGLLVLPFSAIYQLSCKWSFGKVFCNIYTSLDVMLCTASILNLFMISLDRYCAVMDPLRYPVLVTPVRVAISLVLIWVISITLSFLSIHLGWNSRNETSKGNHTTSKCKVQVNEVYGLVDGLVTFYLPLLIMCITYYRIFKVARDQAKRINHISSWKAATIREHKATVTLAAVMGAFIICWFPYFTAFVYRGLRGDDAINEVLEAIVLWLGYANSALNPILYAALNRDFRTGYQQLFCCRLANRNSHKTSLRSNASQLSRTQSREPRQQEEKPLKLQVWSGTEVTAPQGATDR
The subject of data set [36] is Mus musculus. As to the kind of experiment: Anticonvulsant activity in pentylenetetrazole induced seizure mouse model assessed as no observable episode of clonic convulsion of at least 5 secs at 100 mg/kg, ip measured at 0.5 hrs post dose. It is filed as functional, organism-based.

The source made the active and inactive calls. The rule behind the calls is not given here.

What is called inhibition is the drop in the measured response relative to a control, in per cent. By ED50 is commonly meant the dose at which the effect has come halfway, by size or by number of responders.

Chain of Type-1 angiotensin II receptor (Homo sapiens) (P30556 whole entry): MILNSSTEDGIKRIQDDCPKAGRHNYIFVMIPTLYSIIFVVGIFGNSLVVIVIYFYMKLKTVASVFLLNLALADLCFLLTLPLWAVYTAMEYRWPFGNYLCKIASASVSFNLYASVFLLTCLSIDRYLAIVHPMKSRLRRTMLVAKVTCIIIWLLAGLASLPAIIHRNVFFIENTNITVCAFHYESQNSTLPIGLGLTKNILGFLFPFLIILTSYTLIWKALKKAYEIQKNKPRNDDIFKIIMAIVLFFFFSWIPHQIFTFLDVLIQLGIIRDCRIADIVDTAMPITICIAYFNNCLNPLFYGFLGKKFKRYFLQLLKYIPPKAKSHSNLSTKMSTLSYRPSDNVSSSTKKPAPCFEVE
Chain of Neurotensin receptor type 1 (Homo sapiens) (P30989 whole entry): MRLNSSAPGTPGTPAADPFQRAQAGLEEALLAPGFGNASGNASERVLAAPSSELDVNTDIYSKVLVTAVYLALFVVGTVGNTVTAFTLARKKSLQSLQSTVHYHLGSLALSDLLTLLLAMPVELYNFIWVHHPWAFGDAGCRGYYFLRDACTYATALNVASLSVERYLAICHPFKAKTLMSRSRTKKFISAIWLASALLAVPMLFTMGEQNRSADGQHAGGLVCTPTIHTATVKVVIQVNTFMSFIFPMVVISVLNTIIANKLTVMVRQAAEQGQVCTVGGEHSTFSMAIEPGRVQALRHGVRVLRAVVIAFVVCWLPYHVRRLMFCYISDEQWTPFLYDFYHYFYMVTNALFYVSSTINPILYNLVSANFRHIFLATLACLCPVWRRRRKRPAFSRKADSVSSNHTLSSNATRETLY

In the case of `Cc1ccccc1/C=C/C(=O)N[C@@H](C)CO`, the inhibition in [1] is -0.8%; in data set [2], -4.6%; in data set [9], -8.3%; in the data set filed under Rattus norvegicus [16], -0.4%; in data set [17], 2.6%; in the data set on AtT20, -4.6%. For the same compound, the inhibition in the data set listed under Rattus norvegicus [22] is -3.4%. Moreover, the outcome in the data set on Rattus norvegicus [3], with Mus musculus [8] and in the data set with Rattus norvegicus [12] was Active. Moreover, the Activity result in the data set on Rattus norvegicus [4] is on record as “Non-Toxic”; with Mus musculus [13], “Toxic”; in the data set with Mus musculus [19], “Non-Toxic”; with Rattus norvegicus [20], “Non-Toxic”; in the data set with Rattus norvegicus [21], “Non-Toxic”; with Rattus norvegicus [23], “Non-Toxic”. The selectivity ratio in data set [5] was found to be 6.51. Moreover, the Time in the data set on Mus musculus [6], with Mus musculus [10] and in the data set with Mus musculus [14] was 0.5 h in each case. The ED50 in the data set with Mus musculus [7] was determined as 132 mg/kg; in the data set on Rattus norvegicus [11] it was 69.6 mg/kg; in the data set with Mus musculus [15], 43.3 mg/kg; in the data set on Mus musculus [18], 74.1 mg/kg.

Take `CCC(CO)NC(=O)/C=C/c1ccc(Cl)cc1` (stereo not drawn): the inhibition is 10.6% in [24]; -8.2% in the data set listed under Rattus norvegicus [28]; -9.9% in data set [30]; -10% in the data set with AtT20; 4.3% in data set [34]; -5.2% in data set [35]. Moreover, the Activity entry in the data set on Rattus norvegicus [25], with Rattus norvegicus [26], in the data set on Rattus norvegicus [29] and in the data set on Rattus norvegicus [32] was “Non-Toxic” each time. The outcome in the data set with Mus musculus [27], with Mus musculus [31] and in the data set on Rattus norvegicus [33] was Active.

Consider `CC(O)CNC(=O)/C=C/c1ccc(Cl)cc1` (stereo not drawn), for which the inhibition in [1] was -9.6%; in data set [2], -2.6%; in data set [24], 9%; in [9], -1%; in data set [30] it was -7%; in the data set filed under Rattus norvegicus [16], -2.5%. The values for the inhibition (in [34]; in data set [35]; in the data set listed under Rattus norvegicus [22]) were 14.1%, -6.4% and -0.1%, respectively. Further, the Activity result is “Non-Toxic” in the data set on Rattus norvegicus [25]; “Non-Toxic” in the data set with Rattus norvegicus [26]; “Non-Toxic” with Rattus norvegicus [29]; “Toxic” with Mus musculus [13]; “Non-Toxic” in the data set with Rattus norvegicus [32]; “Toxic” in the data set with Mus musculus [19]. For the same compound, the outcome in the data set with Mus musculus [27], in the data set on Mus musculus [8], in the data set with Mus musculus [31] and in the data set on Mus musculus [36] was Active. Moreover, the selectivity ratio in [5] was over 5.41. Further, the Time in the data set on Mus musculus [6], in the data set with Mus musculus [10] and in the data set with Mus musculus [14] was 1 h each time. Besides, the results for the ED50 in the data set on Mus musculus [7], with Mus musculus [15] and in the data set with Mus musculus [18] were 132 mg/kg, 92.5 mg/kg and 120 mg/kg, respectively.

These data come from ChEMBL document CHEMBL3875185, “Structure-anticonvulsant activity studies in the group of (E)-N-cinnamoyl aminoalkanols derivatives monosubstituted in phenyl ring with 4-Cl, 4-CH3 or 2-CH3” (Bioorg Med Chem, 2017).
